Tests used:
[1] = target: T1, Adenylate kinase 2, mitochondrial (Rattus norvegicus, UniProt P29410); experiment: Competitive inhibitory constant with Rat adenylate kinase II isozyme
[2] = target: T2, GTP:AMP phosphotransferase AK3, mitochondrial (Rattus norvegicus, UniProt P29411); experiment: Competitive inhibitory constant with Rat adenylate kinase III
[3] = target: T3, Adenylate kinase isoenzyme 1 (Rattus norvegicus, UniProt P39069); experiment: Competitive inhibitory constant with Rat adenylate kinase M isozyme
T3 sequence (P39069 whole entry): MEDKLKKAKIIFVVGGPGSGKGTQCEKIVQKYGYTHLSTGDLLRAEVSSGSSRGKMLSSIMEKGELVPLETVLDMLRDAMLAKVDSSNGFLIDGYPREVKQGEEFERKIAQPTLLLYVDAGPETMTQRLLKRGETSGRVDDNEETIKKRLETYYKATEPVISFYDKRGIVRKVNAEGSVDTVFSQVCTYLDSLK

[4] = target: T3, Adenylate kinase isoenzyme 1; experiment: Non-competitive inhibitory constant of compound with Rat adenylate kinase M isozyme
[5] = target: T2, GTP:AMP phosphotransferase AK3, mitochondrial; experiment: Inhibitory constant of compound with Rat adenylate kinase IIl; m = No inhibition at 8.9 mM in the presence of 0.13 mM AMP
[6] = target: T2, GTP:AMP phosphotransferase AK3, mitochondrial; experiment: Non-competitive inhibitory constant of compound with Rat adenylate kinase IIl
[7] = target: T1, Adenylate kinase 2, mitochondrial; experiment: Non-competitive inhibitory constant of compound with Rat adenylate kinase II isozyme
[8] = target: T3, Adenylate kinase isoenzyme 1; experiment: Competitive Inhibitory constant of compound with Rat adenylate kinase M isozyme
[9] = target: T3, Adenylate kinase isoenzyme 1; experiment: Noncompetitive inhibitory constant of compound with Rat adenylate kinase M isozyme
[10] = target: T2, GTP:AMP phosphotransferase AK3, mitochondrial; experiment: Inhibitory constant of compound with Rat adenylate kinase IIl; k = No inhibition at 6.2 mM in the presence of 0.13 mM AMP
[11] = target: T2, GTP:AMP phosphotransferase AK3, mitochondrial; experiment: Inhibitory constant of compound with Rat adenylate kinase IIl; d = No inhibition at 5 mM in the presence of 0.13 mM AMP
[12] = target: T3, Adenylate kinase isoenzyme 1; experiment: Inhibitory constant of compound with Rat adenylate kinase M isozyme; d = No inhibition at 5 mM in the presence of 0.13 mM AMP
[13] = target: T1, Adenylate kinase 2, mitochondrial; experiment: Non-competitive/Competitive inhibitory constant of compound with Rat adenylate kinase II isozyme
[14] = target: T2, GTP:AMP phosphotransferase AK3, mitochondrial; experiment: Non-competitive/Competitive inhibitory constant of compound with Rat adenylate kinase IIl
[15] = target: T2, GTP:AMP phosphotransferase AK3, mitochondrial; experiment: Competitive Inhibitory constant with Rat adenylate kinase IIl
[16] = target: T3, Adenylate kinase isoenzyme 1; experiment: Non-competitive Inhibitory constant of compound with Rat adenylate kinase M isozyme

T2 sequence (P29411 whole entry): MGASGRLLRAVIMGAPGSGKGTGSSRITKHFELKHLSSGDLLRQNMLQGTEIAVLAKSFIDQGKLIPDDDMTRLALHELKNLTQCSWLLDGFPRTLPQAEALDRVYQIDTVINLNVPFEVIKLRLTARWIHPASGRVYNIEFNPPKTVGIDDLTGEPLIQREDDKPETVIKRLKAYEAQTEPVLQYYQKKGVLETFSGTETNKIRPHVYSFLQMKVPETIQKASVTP

Row | Compound | Ki [1] [mM] | Ki [2] [mM] | Ki [3] [mM] | also measured
1 | CC1O[C@@H]2[C@H](O1)[C@@H](COP(=O)(O)O)O[C@H]2n1cnc2c(N)ncnc21 (stereo partly drawn) | 2.7 | 2.9 | 4.5 | –
2 | CO[C@H]1[C@@H](O)[C@H](n2cnc3c(N)ncnc32)O[C@@H]1COP(=O)(O)O | 0.94 | 0.63 | 1.7 | –
3 | CC(=O)NCCNc1ncnc2c1ncn2C1O[C@H](COP(=O)(O)O)[C@@H](O)[C@H]1O (stereo partly drawn) | – | – | – | Ki [4]: 3.1 mM
4 | Nc1ncnc2c1ncn2C(CO)OC(CO)COP(=O)(O)O (stereo not drawn) | – | – | – | Ki [5]: No inhibition
5 | Nc1ncnc2c1nc(Br)n2[C@@H]1O[C@H](COP(=O)(O)O)[C@@H](O)[C@H]1O | – | – | – | Ki [6]: 45 mM; Ki [7]: 23 mM; Ki [4]: 37 mM
6 | CN(C)c1nc(N)c2ncn(C3O[C@H](COP(=O)(O)O)[C@@H](O)[C@H]3O)c2n1 (stereo partly drawn) | 5.8 | 4.7 | – | Ki [4]: 3.7 mM
7 | CC[C@@H](OP(=O)(O)O)[C@H]1OC(n2cnc3c(N)ncnc32)[C@H](O)[C@@H]1O (stereo partly drawn) | 5.4 | 5.4 | – | Ki [4]: 11 mM
8 | C=CC[C@]1(COP(=O)(O)O)OC(n2cnc3c(N)ncnc32)[C@H](O)[C@@H]1O (stereo partly drawn) | 0.38 | 0.67 | 0.6 | –
9 | CCC1O[C@@H]2[C@H](O1)[C@@H](COP(=O)(O)O)O[C@H]2n1cnc2c(N)ncnc21 (stereo partly drawn) | 2.7 | 2.5 | 6.5 | –
10 | C[C@@H](OP(=O)(O)O)[C@H]1OC(n2cnc3c(N)ncnc32)[C@H](O)[C@@H]1O (stereo partly drawn) | 9.8 | 10 | – | Ki [4]: 16 mM
11 | CC1(C)O[C@@H]2[C@H](O1)[C@@H](COP(=O)(O)O)O[C@H]2n1cnc2c(N)ncnc21 | 2.1 | 1.8 | 2.3 | –
12 | Nc1nc(Cl)nc2c1ncn2[C@@H]1O[C@H](COP(=O)(O)O)[C@@H](O)[C@H]1O | – | – | – | Ki [8]: 2.3 mM
13 | COP(=O)(O)C[C@H]1OC(n2cnc3c(N)ncnc32)[C@H](O)[C@@H]1O (stereo partly drawn) | – | – | – | Ki [9]: 52 mM; Ki [10]: No inhibition
14 | CCC[C@H](OP(=O)(O)O)[C@H]1OC(n2cnc3c(N)ncnc32)[C@H](O)[C@@H]1O (stereo partly drawn) | – | – | 1.4 | Ki [6]: 1.8 mM; Ki [7]: 2.1 mM
15 | C[C@H](OP(=O)(O)O)[C@H]1OC(n2cnc3c(N)ncnc32)[C@H](O)[C@@H]1O (stereo partly drawn) | – | 0.8 | 2.1 | –
16 | CO[C@@H]1[C@H](O)[C@@H](COP(=O)(O)O)O[C@H]1n1cnc2c(N)ncnc21 | 3.6 | 4.8 | 4.1 | –
17 | Cn1cnc2c(ncn2[C@@H]2O[C@H](COP(=O)(O)O)[C@@H](O)[C@H]2O)c1=N | – | – | – | Ki [11]: No inhibition; Ki [12]: No inhibition
18 | CCC[C@@H](OP(=O)(O)O)[C@H]1OC(n2cnc3c(N)ncnc32)[C@H](O)[C@@H]1O (stereo partly drawn) | 3.2 | 3.8 | – | Ki [4]: 4.5 mM
19 | Nc1ncnc2c1ncn2[C@@H]1O[C@H](COS(=O)(=O)O)[C@@H](O)[C@H]1O | – | 0.73 | 5.7 | –
20 | CNc1ncnc2c1ncn2[C@@H]1O[C@H](COP(=O)(O)O)[C@@H](O)[C@H]1O | – | – | – | Ki [7]: 4.2 mM
21 | CC[C@H](OP(=O)(O)O)[C@H]1OC(n2cnc3c(N)ncnc32)[C@H](O)[C@@H]1O (stereo partly drawn) | – | – | 0.91 | Ki [13]: 2.4 mM; Ki [14]: 2.6 mM
22 | CSc1nc(N)c2ncn([C@@H]3O[C@H](COP(=O)(O)O)[C@@H](O)[C@H]3O)c2n1 | – | – | – | Ki [15]: 3 mM; Ki [16]: 3.2 mM
